Test results: US20250276955A1, “CORONAVIRUS MAIN PROTEASE INHIBITORS AND METHODS USING SAME” (Baylor College of Medicine, priority 2021, published 2025)
Like-named read-outs stand apart in the source and are kept apart here.

Tests used:
[1] = tested on: SARS-COV-2 (USA_WA1/2020 isolate) in VERO E6 cells; test: Real-Time Cell Analysis (RTCA) assay of SARS-COV-2 replication; format: cell-based; settings: VERO E6 cells, 75 h
[2] = Metabolic stability in human liver microsomes; format: in vitro ADME
Procedure, shortened: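 Mouse or human liver microsomal incubations sampled in duplicate at 0, 30 and 60 min, quenched with equal volume ice-cold methanol. Supernatant analysed by UHPLC-Orbitrap MS, C18 column at 40° C, positive ESI, m/z 80–1,200.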

[3] = biological target: T1, renin (Homo sapiens, UniProt P00797); test: Renin assay; format: biochemical; settings: read-out: estimated Kiapp, renin
T1 construct: purchased BPS Bioscience 80211
T1 sequence (P00797 67-406): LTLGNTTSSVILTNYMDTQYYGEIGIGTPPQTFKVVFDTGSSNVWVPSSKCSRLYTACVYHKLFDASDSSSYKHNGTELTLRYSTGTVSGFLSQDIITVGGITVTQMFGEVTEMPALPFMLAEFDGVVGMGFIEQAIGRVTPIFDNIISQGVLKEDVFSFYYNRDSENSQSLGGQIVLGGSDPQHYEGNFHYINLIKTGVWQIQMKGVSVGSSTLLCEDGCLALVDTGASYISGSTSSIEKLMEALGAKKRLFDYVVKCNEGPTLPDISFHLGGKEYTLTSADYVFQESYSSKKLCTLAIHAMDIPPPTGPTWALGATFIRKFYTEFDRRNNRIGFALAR
Procedure: (§1) A kit from BPS Bioscience (#80211) was used with adjustments to the manufacturer's protocol as follows: The reaction was run at RT in black 96 half-area plates in a total reaction volume of 50 uL containing 0.01% Tween-20. Instead of measuring endpoints at 30 min the increase in fluorescence (Ex 490 nm, Em 520 nm) per second (RFU/s) was obtained from linear progress curves over 10 min. Fractional activities were calculated from reactions with no inhibitors. Aliskiren was used as a positive control.

[4] = tested on: HepG2 cells; test: HepG2 cytotoxicity assay (XTT)
[5] = tested on: HepG2 cells; test: HepG2 cell uptake assay; format: in vitro ADME; settings: 10 μM, 2 hours
Procedure: The HepG2 cells maintained in DMEM (containing 1 g/L glucose, 10% fetal bovine serum and 1% penicillin/streptomycin) were seeded in a 12-well plate (a final density of 5×10^5/well) for cell uptake assay and 96-well plate for cytotoxicity assay (a final density of 5×10^4/well). The plate was incubated at 37° C. for 24 h.
The cells in 12-well plate were treated with CDD-1713 or CDD-1976 (final concentration: 10 μM). The plate was incubated at 37° C. for another 2 hr. The medium in the plate was decanted and the cells were rinsed with 1 mL of 1×DPBS for three times. 0.5 mL of 0.25% Trypsin was added into each well and incubated for 3.5 min (at 37° C.). 1 mL of complete medium was added into each well to quench the reaction. After spinning at 350×g for 5 min, the cell pellet was reconstituted in MeOH/H2O (v/v 1/1) and CDD-1713 or CDD-1976 was extracted from 100 μL of the resulting mixture with 100 μL of ice-cold methanol. The mixtures were centrifuged at rcf 15,000 for 15 min. Three μL of the supernatant was analyzed by UHPLC-Q Exactive Orbitrap MS (Thermo Fisher Scientific, USA) equipped with 50 mm×4.6 mm column (XDB C-18, Agilent Technologies, USA). The column temperature was set at 40° C. Ultra-pure nitrogen was applied as the sheath (45 arbitrary unit), auxiliary (10 arbitrary unit), sweep (1.0 arbitrary unit) and the collision gas. […]

[6] = biological target: SARS-COV-2 M^pro (authentic N- and C-termini) (Severe acute respiratory syndrome coronavirus 2, UniProt P0DTD1); test: biochemical; format: biochemical
[7] = biological target: T2, HOVPro-Gi.1 (Norovirus, UniProt Q83883); test: Thermal shift, HOVPro-Gi.1; format: binding
T2 construct: HOVPro-Gi.1

[8] = tested on: HOVPro-Gii.4; test: Thermal shift, HOVPro-Gii.4; format: binding
[9] = biological target: T3, Human Cathepsin B (Homo sapiens, UniProt P07858); test: Cathepsin B assay; format: biochemical
T3 construct: purchased BPS Bioscience 79590
Procedure: as §1, with “(#79590)” for “(#80211)”, “The activated enzyme was diluted 250-fold just before use, and the” for “The”, “60” for “30”, “360” for “490”, “460” for “520”, “E-64” for “Aliskiren”

[10] = biological target: T4, human thrombin (Homo sapiens, UniProt P00734); test: Thrombin fluorescence assay; format: biochemical; settings: fluorescence assay
T4 construct: purchased Sigma-Aldrich MAK243

[11] = tested on: 293T; test: 293T relative cell viability; settings: day 3, 10 μM

T2 sequence (Q83883 1101-1281): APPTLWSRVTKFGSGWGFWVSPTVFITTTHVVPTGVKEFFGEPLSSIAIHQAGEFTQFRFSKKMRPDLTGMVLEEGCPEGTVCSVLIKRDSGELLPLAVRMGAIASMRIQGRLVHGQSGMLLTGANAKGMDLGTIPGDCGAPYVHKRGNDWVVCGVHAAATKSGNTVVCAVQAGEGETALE

With `COc1cc(-c2cccc3[nH]ncc23)cc(C=O)c1OCC(=O)N(C)C` [CDD-1713, 2-(2-formyl-4-(1H-indazol-4-yl)-6-methoxyphenoxy)-N,N-dimethylacetamide] the IC50 ([1]; Severe acute respiratory syndrome coronavirus 2, Vero C1008, read-out: IC50, inhibition of SARS-COV-2 induced cell death (RTCA)) was 5190 nM, the “prevention of SARS-COV-2 induced cell death (in words)” value [1] was “reduced cell death in a dose-dependent manner” and the “HLM t1/2” value ([2]; Table 4) was 15.3 min. The microsomal CLint at 2 μM ([2]; human, liver microsomes) was 90.6 µL/min/mg, the “metabolic stability in human liver microsomes (in words)” value ([2]; human, microsomes) was “metabolically labile” and the Ki [3] was 53000 nM. For the same compound, the “cytotoxicity in HepG2 cells (in words)” value ([4]; 100 μM) was “no obvious cytotoxicity”, the IC50 ([4]; Homo sapiens, HepG2, 24 h, read-out: HepG2 cell viability IC50) was over 100000 nM and the “cell permeability in HepG2 uptake assay (in words)” value [5] was “moderate cell permeability”. It also gave a Ki ([6]; 25 nM enzyme, 15 μM fluorescent peptide, Morrison equation, Inactive = less than 50% inhibition at 25 μM compound, read-out: M^pro Ki) of 64.8 ± 4.9 nM, a Ki ([6]; Morrison equation, read-out: apparent Ki against M^pro) of 64.8 nM and a Ki ([6]; Table 5, read-out: Ki,app) of 64.8 nM. The Ki ([6]; read-out: Ki, app towards SARS-CoV-2 M^pro, athentic termini, authentic termini) was 64.8 nM, the “ΔTm of HOVPro-Gi.1 at 50 μM compound conc.” value [7] was −0.09 °C and the “ΔTm of HOVPro-Gii.4 at 50 μM compound conc.” value [8] was −0.73 °C. For the same compound, the “Human Cathepsin B, Fractional Remaining Activity” value [9] was 0.97, the Thrombin inhibition [10] was “None” and the “thrombin inhibition (in words)” value [10] was “No inhibition”. For the same compound, the “293T day 3 relative cell viability (% inhibition at 10 μM)” value [11] was “None”.
